Laboratory results published in ChEMBL document CHEMBL4177696, “Identification of a diverse synthetic abietane diterpenoid library and insight into the structure-activity relationships for antibacterial activity” (Bioorg Med Chem Lett, 2017).
≈ marks a conversion by molar mass, not a printed value.

Experiments:
Assay type in all cases: functional
Staphylococcus aureus = test: Antibacterial activity against Staphylococcus aureus measured after 24 hrs
Pseudomonas fluorescens = test: Antibacterial activity against Pseudomonas fluorescens measured after 24 hrs
Bacillus subtilis = test: Antibacterial activity against Bacillus subtilis measured after 24 hrs
Escherichia coli = test: Antibacterial activity against Escherichia coli measured after 24 hrs

Compound | MIC (Staphylococcus aureus) | MIC (Pseudomonas fluorescens) | MIC (Bacillus subtilis) | MIC (Escherichia coli)
C=C1[C@H](O)CC[C@]2(C)c3ccc(C(C)C)c(OC)c3CC[C@@H]12 | 100 µg/mL (≈ 333 µM) | 100 µg/mL (≈ 333 µM) | 100 µg/mL (≈ 333 µM) | 100 µg/mL (≈ 333 µM)
COC(=O)[C@]1(C)CCC[C@]2(C)c3ccc(C(C)C)cc3CC[C@@H]12 [METHYL DEHYDROABIETATE] | 75 µg/mL (≈ 238 µM) | 100 µg/mL (≈ 318 µM) | 100 µg/mL (≈ 318 µM) | 100 µg/mL (≈ 318 µM)
COc1c(C(C)C)ccc2c1CC[C@H]1C(=O)CCC[C@]21C | 75 µg/mL (≈ 262 µM) | 100 µg/mL (≈ 349 µM) | 100 µg/mL (≈ 349 µM) | 75 µg/mL (≈ 262 µM)
COC(=O)[C@]1(C)CCC[C@]2(C)c3ccc(C(C)C)c(NC(=O)Cn4cc(-c5ccc(OC(F)(F)F)cc5)nn4)c3CC[C@@H]12 | 25 µg/mL (≈ 41.8 µM) | 75 µg/mL (≈ 125 µM) | 50 µg/mL (≈ 83.5 µM) | 50 µg/mL (≈ 83.5 µM)
COc1cccc2c1CC[C@H]1C3=C(CC[C@]21C)C(=O)OC3 | 100 µg/mL (≈ 352 µM) | 100 µg/mL (≈ 352 µM) | 100 µg/mL (≈ 352 µM) | 100 µg/mL (≈ 352 µM)
COC(=O)[C@]1(C)CCC[C@]2(C)c3ccc(C(C)C)c(NC(=O)Cn4cc(CBr)nn4)c3CC[C@@H]12 | 50 µg/mL (≈ 94.1 µM) | 25 µg/mL (≈ 47 µM) | 50 µg/mL (≈ 94.1 µM) | 75 µg/mL (≈ 141 µM)
COC(=O)[C@]1(C)CCC[C@]2(C)c3ccc(C(C)C)c(NC(=O)Cn4cc(-c5ccc([N+](=O)[O-])cc5)nn4)c3CC[C@@H]12 | 25 µg/mL (≈ 44.7 µM) | 12.5 µg/mL (≈ 22.3 µM) | 50 µg/mL (≈ 89.3 µM) | 75 µg/mL (≈ 134 µM)
COc1c(C(C)C)ccc2c1CC=C1C3=C(CCC12C)C(=O)OC3 (single isomer, unassigned) | 75 µg/mL (≈ 231 µM) | 100 µg/mL (≈ 308 µM) | 100 µg/mL (≈ 308 µM) | 75 µg/mL (≈ 231 µM)
COc1c(C(C)C)ccc2c1CC[C@@]1(O)C3=C(CC[C@]21C)C(=O)OC3 | 100 µg/mL (≈ 292 µM) | 100 µg/mL (≈ 292 µM) | 100 µg/mL (≈ 292 µM) | 100 µg/mL (≈ 292 µM)
COC(=O)[C@]1(C)CCC[C@]2(C)c3ccc(C(C)C)c(NC(=O)Cn4cc(-c5ccc(C(F)(F)F)cc5)nn4)c3CC[C@@H]12 | 25 µg/mL (≈ 42.9 µM) | 25 µg/mL (≈ 42.9 µM) | 12.5 µg/mL (≈ 21.5 µM) | 12.5 µg/mL (≈ 21.5 µM)
COC(=O)[C@]1(C)CCC[C@]2(C)c3ccc(C(C)C)c(N)c3CC[C@@H]12 | 25 µg/mL (≈ 75.9 µM) | 50 µg/mL (≈ 152 µM) | 50 µg/mL (≈ 152 µM) | 50 µg/mL (≈ 152 µM)
C[C@]12CCC3=C(COC3=O)[C@@H]1CCc1ccccc12 | 100 µg/mL (≈ 393 µM) | 75 µg/mL (≈ 295 µM) | 75 µg/mL (≈ 295 µM) | 100 µg/mL (≈ 393 µM)
C=C1CCC[C@]2(C)c3ccc(C(C)C)c(OC)c3CC[C@@H]12 | 100 µg/mL (≈ 352 µM) | 100 µg/mL (≈ 352 µM) | 75 µg/mL (≈ 264 µM) | 100 µg/mL (≈ 352 µM)
C[C@]12CC=C3C(=O)OC[C@@H]3[C@@H]1CCc1ccccc12 | 50 µg/mL (≈ 197 µM) | 1.6 µg/mL (≈ 6.29 µM) | 25 µg/mL (≈ 98.3 µM) | 0.8 µg/mL (≈ 3.15 µM)
COC(=O)[C@]1(C)CCC[C@]2(C)c3ccc(C(C)C)c(NC(=O)Cn4cc(COc5ccccc5)nn4)c3CC[C@@H]12 | 50 µg/mL (≈ 91.8 µM) | 75 µg/mL (≈ 138 µM) | 12.5 µg/mL (≈ 22.9 µM) | 25 µg/mL (≈ 45.9 µM)
COC(=O)[C@]1(C)CCC[C@]2(C)c3ccc(C(C)C)c(NC(=O)Cn4cc(-c5cccc(Br)c5)nn4)c3CC[C@@H]12 | 25 µg/mL (≈ 42.1 µM) | 12.5 µg/mL (≈ 21.1 µM) | 25 µg/mL (≈ 42.1 µM) | 12.5 µg/mL (≈ 21.1 µM)
COC(=O)[C@]1(C)CCC[C@]2(C)c3ccc(C(C)C)c(NC(=O)Cn4cc(CCC#N)nn4)c3CC[C@@H]12 | 50 µg/mL (≈ 102 µM) | 50 µg/mL (≈ 102 µM) | 75 µg/mL (≈ 153 µM) | 50 µg/mL (≈ 102 µM)
COC(=O)c1cn(CC(=O)Nc2c(C(C)C)ccc3c2CC[C@H]2[C@](C)(C(=O)OC)CCC[C@]32C)nn1 | 75 µg/mL (≈ 151 µM) | 50 µg/mL (≈ 101 µM) | 50 µg/mL (≈ 101 µM) | 75 µg/mL (≈ 151 µM)
COC(=O)C1=C[C@@H]2CCc3c(ccc(C(C)C)c3OC)[C@@]2(C)CC1 | 50 µg/mL (≈ 152 µM) | 25 µg/mL (≈ 76.1 µM) | 25 µg/mL (≈ 76.1 µM) | 75 µg/mL (≈ 228 µM)
COC(=O)[C@]1(C)CCC[C@]2(C)c3ccc(C(C)C)c(NC(=O)Cn4cc(-c5cccc([N+](=O)[O-])c5)nn4)c3CC[C@@H]12 | 25 µg/mL (≈ 44.7 µM) | 50 µg/mL (≈ 89.3 µM) | 50 µg/mL (≈ 89.3 µM) | 75 µg/mL (≈ 134 µM)

Compound | MIC (Staphylococcus aureus) | MIC (Pseudomonas fluorescens) | MIC (Bacillus subtilis) | MIC (Escherichia coli)
COC(=O)[C@]1(C)CCC[C@]2(C)c3ccc(C(C)C)c(NC(=O)Cn4cc(-c5ccc6ccccc6c5)nn4)c3CC[C@@H]12 | 75 µg/mL (≈ 133 µM) | 25 µg/mL (≈ 44.3 µM) | 50 µg/mL (≈ 88.5 µM) | 25 µg/mL (≈ 44.3 µM)
COC(=O)[C@]1(C)CCC[C@@]2(C)[C@H]1CC=C1C(=O)[C@@](O)(C(C)C)CC[C@@H]12 | 75 µg/mL (≈ 215 µM) | 100 µg/mL (≈ 287 µM) | 100 µg/mL (≈ 287 µM) | 75 µg/mL (≈ 215 µM)
COc1c(C(C)C)ccc2c1CC[C@H]1[C@@H](CO)[C@H](O)CC[C@]21C | 75 µg/mL (≈ 236 µM) | 50 µg/mL (≈ 157 µM) | 100 µg/mL (≈ 314 µM) | 75 µg/mL (≈ 236 µM)
COc1c(C(C)C)ccc2c1CC[C@H]1[C@H]3COC(=O)[C@@]3(O)CC[C@]21C | 75 µg/mL (≈ 218 µM) | 100 µg/mL (≈ 290 µM) | 100 µg/mL (≈ 290 µM) | 100 µg/mL (≈ 290 µM)
COC(=O)[C@]1(C)CCC[C@]2(C)c3ccc(C(C)C)c(NC(=O)Cn4cc(-c5ccc(OC)cc5)nn4)c3CC[C@@H]12 | 6.3 µg/mL (≈ 11.6 µM) | 25 µg/mL (≈ 45.9 µM) | 50 µg/mL (≈ 91.8 µM) | 12.5 µg/mL (≈ 22.9 µM)
COC(=O)[C@]1(C)CCC[C@]2(C)c3ccc(C(C)C)c(NC(=O)Cn4cc(CCO)nn4)c3CC[C@@H]12 | 25 µg/mL (≈ 51.8 µM) | 75 µg/mL (≈ 155 µM) | 50 µg/mL (≈ 104 µM) | 25 µg/mL (≈ 51.8 µM)
COC(=O)[C@]1(C)CCC[C@@]2(C)[C@H]1CC=C1C=C(C(C)C)CC[C@@H]12 [METHYL ABIETATE] | 50 µg/mL (≈ 158 µM) | 50 µg/mL (≈ 158 µM) | 75 µg/mL (≈ 237 µM) | 75 µg/mL (≈ 237 µM)
COc1c(C(C)C)ccc2c1CC[C@H]1C3=C(CC[C@]21CO)C(=O)OC3 | 50 µg/mL (≈ 146 µM) | 75 µg/mL (≈ 219 µM) | 75 µg/mL (≈ 219 µM) | 50 µg/mL (≈ 146 µM)
C=C1[C@H](O[Si](C)(C)C(C)(C)C)CC[C@]2(C)c3ccccc3CC[C@@H]12 | 100 µg/mL (≈ 292 µM) | 75 µg/mL (≈ 219 µM) | 100 µg/mL (≈ 292 µM) | 75 µg/mL (≈ 219 µM)
COc1c(C(C)C)ccc2c1CC[C@H]1C(=O)CCC[C@]21CO[N+](=O)[O-] | 50 µg/mL (≈ 144 µM) | 75 µg/mL (≈ 216 µM) | 25 µg/mL (≈ 72 µM) | 50 µg/mL (≈ 144 µM)
COC(=O)[C@]1(C)CCC[C@]2(C)c3ccc(C(C)C)c(NC(=O)Cn4cc(Cc5ccccc5)nn4)c3CC[C@@H]12 | 50 µg/mL (≈ 94.6 µM) | 50 µg/mL (≈ 94.6 µM) | 50 µg/mL (≈ 94.6 µM) | 75 µg/mL (≈ 142 µM)
COc1c(C(C)C)ccc2c1CC[C@H]1C(=O)C(=C(SC)SC)CC[C@]21CO | 25 µg/mL (≈ 61.5 µM) | 6.3 µg/mL (≈ 15.5 µM) | 12.5 µg/mL (≈ 30.7 µM) | 3.1 µg/mL (≈ 7.62 µM)
COC(=O)[C@]1(C)CCC[C@]2(C)c3ccc(C(C)C)c(NC(=O)Cn4cc(-c5cccc(OC)c5)nn4)c3CC[C@@H]12 | 50 µg/mL (≈ 91.8 µM) | 50 µg/mL (≈ 91.8 µM) | 75 µg/mL (≈ 138 µM) | 75 µg/mL (≈ 138 µM)
CCn1cc(C(=O)O)c(=O)c2cc(F)c(N3CCNCC3)cc21 [NORFLOXACIN] | 1.6 µg/mL (≈ 5.01 µM) | 1.6 µg/mL (≈ 5.01 µM) | 1.6 µg/mL (≈ 5.01 µM) | 3.1 µg/mL (≈ 9.71 µM)
COC(=O)[C@]1(C)CCC[C@]2(C)c3ccc(C(C)C)c(NC(=O)Cn4cc(-c5ccncc5)nn4)c3CC[C@@H]12 | 0.8 µg/mL (≈ 1.55 µM) | 3.1 µg/mL (≈ 6.01 µM) | 6.3 µg/mL (≈ 12.2 µM) | 25 µg/mL (≈ 48.5 µM)
COC(=O)[C@]1(C)CCC[C@]2(C)c3ccc(C(C)C)c(NC(=O)Cn4cc(-c5cccs5)nn4)c3CC[C@@H]12 | 12.5 µg/mL (≈ 24 µM) | 6.3 µg/mL (≈ 12.1 µM) | 6.3 µg/mL (≈ 12.1 µM) | 50 µg/mL (≈ 96 µM)
CC(C)(C)[Si](C)(C)O[C@@H]1CC[C@]2(C)c3ccccc3CC[C@H]2[C@H]1CO | 100 µg/mL (≈ 277 µM) | 75 µg/mL (≈ 208 µM) | 75 µg/mL (≈ 208 µM) | 100 µg/mL (≈ 277 µM)
COC(=O)[C@]1(C)CCC[C@]2(C)c3ccc(C(C)C)c(OC)c3C(=O)C[C@@H]12 | 50 µg/mL (≈ 139 µM) | 50 µg/mL (≈ 139 µM) | 50 µg/mL (≈ 139 µM) | 25 µg/mL (≈ 69.7 µM)
NCC[C@H](O)C(=O)N[C@@H]1C[C@H](N)[C@@H](O[C@H]2O[C@H](CN)[C@@H](O)[C@H](O)[C@H]2O)[C@H](O)[C@H]1O[C@H]1O[C@H](CO)[C@@H](O)[C@H](N)[C@H]1O.O=S(=O)(O)O.O=S(=O)(O)O [AMIKACIN SULFATE] | 0.8 µg/mL | 0.8 µg/mL | 0.8 µg/mL | 1.6 µg/mL
